For the assay, the system named is DOHH2 cells. As to the kind of experiment: Cell proliferation assay (MTS) in DOHH2 cells, mechanism-based assay for BTK inhibition. Particulars: Homo sapiens, DOHH-2, 120 h incubation, 5000 cells/well. In a few lines: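 DOHH2 cells (5000/well) were plated in RPMI-1640 with 10% FBS, left overnight, then exposed 120 h at 37° C, 5% CO2 to compound at 1.5–10000 nM final (nine levels). Proliferation was read by MTS, incubated exactly 2 h and stopped with SDS, as a measure of cellular BTK inhibition.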

What is called IC50 is the concentration that inhibits the measured activity by half. Read a low IC50 as inhibition by little substance.

`CC#CC(=O)N1CCC(c2nn(-c3ccc(Oc4ccccc4)cc3)c3c(N)n[nH]c(=O)c23)C1` (stereo not shown) [Example 6, 7-amino-3-(1-(but-2-ynoyl)pyrrolidin-3-yl)-1-(4-phenoxyphenyl)-1,5-dihydro-4H-pyrazolo[3,4-d]pyridazin-4-one] showed an IC50 of 179 nM. That is a sub-micromolar value.

On to `CC#CC(=O)N1CCC[C@@H](c2nn(-c3ccc(Oc4c(F)cccc4F)cc3)c3c(N)n[nH]c(=O)c23)C1` [Example 85, (R)-7-amino-3-(1-(but-2-ynoyl)piperidin-3-yl)-1-(4-(2,6-difluorophenoxy)phenyl)-1,5-dihydro-4H-pyrazolo[3,4-d]pyridazin-4-one], for which the IC50 stood at 435 nM. Take `CC#CC(=O)N1CC[C@@H](c2nn(-c3ccc(Oc4ccccc4F)cc3)c3c(N)n[nH]c(=O)c23)C1` [Example 73, (R)-7-amino-3-(1-(but-2-ynoyl)pyrrolidin-3-yl)-1-(4-(2-fluorophenoxy)phenyl)-1,5-dihydro-4H-pyrazolo[3,4-d]pyridazin-4-one]: half-maximal inhibition (IC50) was put at 440 nM. `C=CC(=O)N1CCC[C@@H](c2cn(-c3ccc(Oc4cccc(F)c4)cc3)c3c(N)n[nH]c(=O)c23)C1` [Example 30, (S)-3-(1-acryloylpiperidin-3-yl)-7-amino-1-(4-(3-fluorophenoxy)phenyl)-1,5-dihydro-4H-pyrrolo [2,3-d]pyridazin-4-one] gave an IC50 of 129 nM. The figure for `C=CC(=O)N1CC[C@H](c2nn(-c3ccc(Oc4cc(F)cc(F)c4)cc3)c3c(N)n[nH]c(=O)c23)C1` [Example 52, (S)-3-(1-acryloylpyrrolidin-3-yl)-7-amino-1-(4-(3,5-difluorophenoxy)phenyl)-1,5-dihydro-4H-pyrazolo[3,4-d]pyridazin-4-one] is 321 nM.

On to `CC#CC(=O)N1CC[C@@H](c2cn(-c3ccc(Oc4ccccc4)cc3)c3c(N)n[nH]c(=O)c23)C1` [Example 67, (S)-7-amino-3-(1-(but-2-ynoyl)pyrrolidin-3-yl)-1-(4-phenoxyphenyl)-1,5-dihydro-4H-pyrrolo [2,3-d]pyridazin-4-one], for which inhibition was half-maximal at 205 nM (IC50). `C=CC(=O)N1CC[C@@H](c2cn(-c3ccc(Oc4cc(F)cc(F)c4)cc3)c3c(N)n[nH]c(=O)c23)C1` [Example 22, (S)-3-(1-acryloylpyrrolidin-3-yl)-7-amino-1-(4-(3,5-difluorophenoxy)phenyl)-1,5-dihydro-4H-pyrrolo[2,3-d]pyridazin-4-one]: the IC50 came out at 86 nM. The result for `CC#CC(=O)N1CCC[C@@H](c2nn(-c3ccc(Oc4ccccc4F)cc3)c3c(N)n[nH]c(=O)c23)C1` [Example 77, (R)-7-amino-3-(1-(but-2-ynoyl)piperidin-3-yl)-1-(4-(2-fluorophenoxy)phenyl)-1,5-dihydro-4H-pyrazolo[3,4-d]pyridazin-4-one] reads 666 nM; that for `CC#CC(=O)N1CC[C@@H](c2cn(-c3ccc(Oc4c(F)cccc4F)cc3)c3c(N)n[nH]c(=O)c23)C1` [Example 83, (S)-7-amino-3-(1-(but-2-ynoyl)pyrrolidin-3-yl)-1-(4-(2,6-difluorophenoxy)phenyl)-1,5-dihydro-4H-pyrrolo[2,3-d]pyridazin-4-one], 456 nM; that for `CC#CC(=O)N1CCC[C@H](c2cn(-c3ccc(Oc4ccccc4F)cc3)c3c(N)n[nH]c(=O)c23)C1` [Example 80, (R)-7-amino-3-(1-(but-2-ynoyl)piperidin-3-yl)-1-(4-(2-fluorophenoxy)phenyl)-1,5-dihydro-4H-pyrrolo[2,3-d]pyridazin-4-one], 450 nM. The figure for `C=CC(=O)N1CC[C@@H](c2nn(-c3ccc(Oc4ccccc4)cc3)c3c(N)n[nH]c(=O)c23)C1` [Example 13, (R)-3-(1-acryloylpyrrolidin-3-yl)-7-amino-1-(4-phenoxyphenyl)-1,5-dihydro-4H-pyrazolo[3,4-d]pyridazin-4-one] is 107 nM; for `C=CC(=O)N1CCC[C@@H](c2nn(-c3ccc(Oc4cccc(F)c4F)cc3)c3c(N)n[nH]c(=O)c23)C1` [Example 56, (R)-3-(1-acryloylpiperidin-3-yl)-7-amino-1-(4-(2,3-difluorophenoxy)phenyl)-1,5-dihydro-4H-pyrazolo[3,4-d]pyridazin-4-one] it is 42 nM. With `C=CC(=O)N1CCC(c2cn(-c3ccc(Oc4ccccc4)cc3)c3c(N)n[nH]c(=O)c23)C1` (stereo not shown) [Example 1, 3-(1-acryloylpyrrolidin-3-yl)-7-amino-1-(4-phenoxyphenyl)-1,5-dihydro-4H-pyrrolo[2,3-d]pyridazin-4-one], the IC50 worked out at 36 nM. The result for `C=CC(=O)N1CC[C@H](c2nn(-c3ccc(Oc4ccccc4F)cc3)c3c(N)n[nH]c(=O)c23)C1` [Example 47, (S)-3-(1-acryloylpyrrolidin-3-yl)-7-amino-1-(4-(2-fluorophenoxy)phenyl)-1,5-dihydro-4H-pyrazolo[3,4-d]pyridazin-4-one] reads 60 nM. The figure for `CN(C)C/C=C/C(=O)N1CC[C@@H](c2cn(-c3ccc(Oc4ccccc4F)cc3)c3c(N)n[nH]c(=O)c23)C1` [Example 94, (S,E)-7-amino-3-(1-(4-(dimethylamino)but-2-enoyl)pyrrolidin-3-yl)-1-(4-(2-fluorophenoxy)phenyl)-1,5-dihydro-4H-pyrrolo[2,3-d]pyridazin-4-one] is 247 nM; for `C=CC(=O)N1CCC(c2cn(-c3ccc(Oc4c(F)cccc4F)cc3)c3c(N)n[nH]c(=O)c23)C1` (stereo not shown) [Example 3, 3-(1-acryloylpyrrolidin-3-yl)-7-amino-1-(4-(2,6-difluorophenoxy)phenyl)-1,5-dihydro-4H-pyrrolo[2,3-d]pyridazin-4-one] it is 147 nM. Compound `CC#CC(=O)N1CC[C@H](c2nn(-c3ccc(Oc4ccccc4)cc3)c3c(N)n[nH]c(=O)c23)C1` [Example 66, (S)-7-amino-3-(1-(but-2-ynoyl)pyrrolidin-3-yl)-1-(4-phenoxyphenyl)-1,5-dihydro-4H-pyrazolo [3,4-d]pyridazin-4-one] came in with an IC50 of 242 nM. The result for `CC#CC(=O)N1CC[C@H](c2nn(-c3ccc(Oc4ccccc4F)cc3)c3c(N)n[nH]c(=O)c23)C1` [Example 74, (S)-7-amino-3-(1-(but-2-ynoyl)pyrrolidin-3-yl)-1-(4-(2-fluorophenoxy)phenyl)-1,5-dihydro-4H-pyrazolo[3,4-d]pyridazin-4-one] reads 393 nM. For the compound `CC#CC(=O)N1CC[C@H](c2nn(-c3ccc(Oc4c(F)cccc4F)cc3)c3c(N)n[nH]c(=O)c23)C1` [Example 82, (S)-7-amino-3-(1-(but-2-ynoyl)pyrrolidin-3-yl)-1-(4-(2,6-difluorophenoxy)phenyl)-1,5-dihydro-4H-pyrazolo[3,4-d]pyridazin-4-one], inhibition was half-maximal at 687 nM (IC50).

Values taken from US10800785B2, “Substituted pyrrolo[2,3-d]pyridazin-4-ones and pyrazolo[3,4-d]pyridazin-4-ones as protein kinase inhibitors” (Shanghai Fochon Pharmaceutical Co., Ltd., priority 2016, dated 2020).
